# Data as given in the supplement of paper PMC10883282.
# Where a name gives a salt, the structure may show the parent alone. ± gives the standard deviation of the averaged measurements.
# Tested on: SW872
# Assay: relative viability vs DMSO control (72 h) (fraction); higher = more viable cells
# Procedure, shortened: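 Sarcoma cell lines in 384-well plates, seeded to reach 80–90% confluence, were given compound after 24 h and kept 72 h at 37 °C, 5% CO2, with 0.1% DMSO vehicle and a 5 µM positive control. Relative viability came from ATPLite as percent growth, averaged over up to triplicate wells. On the rescaled values, 1 equals full and 0 equals none.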
Compound,relative viability (0.00017 µM),relative viability (0.00051 µM),relative viability (0.00152 µM),relative viability (0.00457 µM),relative viability (0.01372 µM),relative viability (0.04115 µM),relative viability (0.1235 µM),relative viability (0.3704 µM),relative viability (1.111 µM),relative viability (3.333 µM),relative viability (10 µM)
CC[C@H](Nc1ncnc2[nH]cnc12)c1nc2cccc(F)c2c(=O)n1-c1ccccc1 [Idelalisib],1.09 ± 0.073,1.13 ± 0.052,1.1 ± 0.034,1.1 ± 0.046,1.11 ± 0.052,1.08 ± 0.055,1.07 ± 0.066,1.04 ± 0.087,0.945 ± 0.043,0.876 ± 0.051,0.746 ± 0.036
COc1cccc2c1C(=O)c1c(O)c3c(c(O)c1C2=O)C[C@@](O)(C(=O)CO)C[C@@H]3O[C@H]1C[C@H](N)[C@H](O)[C@H](C)O1 [Doxorubicin Hydrochloride],1.04 ± 0.021,1.05 ± 0.046,1.04 ± 0.031,1.08 ± 0.036,1.06 ± 0.018,0.961 ± 0.024,0.527 ± 0.051,0.203 ± 0.011,0.172 ± 0.014,0.213 ± 0.005,0.175 ± 0.0045
Cc1ccc(NC(=O)c2ccc(CN3CCN(C)CC3)cc2)cc1Nc1nc(-c2cccnc2)cs1 [Masitinib],1.03 ± 0.044,1.06 ± 0.028,1.04 ± 0.029,1.03 ± 0.041,1.04 ± 0.038,1.06 ± 0.03,1.006 ± 0.006,0.979 ± 0.021,0.798 ± 0.015,0.519 ± 0.0078,0.127 ± 0.012
Cn1cnc2c(F)c(Nc3ccc(Br)cc3F)c(C(=O)NOCCO)cc21 [Binimetinib],1.11 ± 0.046,1.06 ± 0.027,1.02 ± 0.059,1.05 ± 0.041,0.889 ± 0.038,0.724 ± 0.086,0.635 ± 0.041,0.584 ± 0.011,0.589 ± 0.02,0.583 ± 0.037,0.559 ± 0.026
CC(=O)Nc1cccc(-n2c(=O)n(C3CC3)c(=O)c3c(Nc4ccc(I)cc4F)n(C)c(=O)c(C)c32)c1 [Trametinib],1.11 ± 0.046,1.05 ± 0.055,0.856 ± 0.059,0.674 ± 0.046,0.597 ± 0.0061,0.607 ± 0.034,0.593 ± 0.008,0.593 ± 0.022,0.562 ± 0.015,0.549 ± 0.031,0.564 ± 0.014
Cc1cc(Nc2ncnc3ccc(NC4=NC(C)(C)CO4)cc23)ccc1Oc1ccn2ncnc2c1 [Tucatinib],1.07 ± 0.017,1.08 ± 0.04,1.08 ± 0.016,1.09 ± 0.037,1.07 ± 0.051,1.08 ± 0.011,1.08 ± 0.017,1.04 ± 0.035,1.06 ± 0.04,1.03 ± 0.045,0.994 ± 0.038
CCN1CCN(Cc2ccc(Nc3ncc(F)c(-c4cc(F)c5nc(C)n(C(C)C)c5c4)n3)nc2)CC1 [Abemaciclib],1.01 ± 0.08,1.03 ± 0.038,1.01 ± 0.044,1.02 ± 0.046,1.01 ± 0.052,0.95 ± 0.095,0.874 ± 0.037,0.742 ± 0.025,0.678 ± 0.032,0.668 ± 0.018,0.709 ± 0.04
Cc1nc(-c2cn3c(n2)-c2ccc(-c4cnn(C(C)(C)C(N)=O)c4)cc2OCC3)n(C(C)C)n1 [Taselisib],1 ± 0.044,0.996 ± 0.03,1.02 ± 0.021,0.9808 ± 0.006,0.93 ± 0.061,0.88 ± 0.017,0.758 ± 0.029,0.643 ± 0.012,0.504 ± 0.015,0.381 ± 0.015,0.284 ± 0.018
C[C@@H]1COCCN1c1cc(-c2ccnn2C)c2ccnc(-c3ccn[nH]3)c2n1,0.994 ± 0.054,1.01 ± 0.018,1.01 ± 0.014,1.04 ± 0.037,0.953 ± 0.043,0.867 ± 0.013,0.714 ± 0.047,0.452 ± 0.043,0.282 ± 0.012,0.229 ± 0.011,0.197 ± 0.0092
CO[C@H]1C[C@@H]2CC[C@@H](C)[C@@](O)(O2)C(=O)C(=O)N2CCCC[C@H]2C(=O)O[C@H]([C@H](C)C[C@@H]2CC[C@@H](OP(C)(C)=O)[C@H](OC)C2)CC(=O)[C@H](C)/C=C(\C)[C@@H](O)[C@@H](OC)C(=O)[C@H](C)C[C@H](C)/C=C/C=C/C=C/1C [Ridaforolimus],0.974 ± 0.036,0.833 ± 0.034,0.747 ± 0.021,0.7118 ± 0.0071,0.626 ± 0.035,0.6 ± 0.034,0.5981 ± 0.0039,0.597 ± 0.0072,0.579 ± 0.012,0.565 ± 0.017,0.565 ± 0.015
CCc1cc2c(cc1N1CCC(N3CCOCC3)CC1)C(C)(C)c1[nH]c3cc(C#N)ccc3c1C2=O [Alectinib],1.03 ± 0.043,1.02 ± 0.063,1.05 ± 0.069,1.04 ± 0.036,1.07 ± 0.053,1.06 ± 0.046,1.09 ± 0.062,1.07 ± 0.069,1.09 ± 0.058,1.07 ± 0.076,1.08 ± 0.065
COCc1c(-c2cc3cc(C)cc(OC)c3s2)c2c(N)ncnn2c1CN1CCNC(=O)C1 [Rogaratinib],1.08 ± 0.043,1.07 ± 0.012,1.06 ± 0.045,1.03 ± 0.013,1.003 ± 0.0078,1.03 ± 0.011,1.03 ± 0.026,0.992 ± 0.028,0.952 ± 0.02,0.815 ± 0.051,0.513 ± 0.0093
C[C@@H]1CCN(C(=O)CC#N)C[C@@H]1N(C)c1ncnc2[nH]ccc12 [Tofacitinib],1.12 ± 0.03,1.08 ± 0.035,1.1 ± 0.028,1.09 ± 0.056,1.08 ± 0.032,1.04 ± 0.081,1.03 ± 0.056,1.02 ± 0.063,0.946 ± 0.068,0.887 ± 0.095,0.747 ± 0.064
O=C(Cc1ccc(-c2ccc(OCCN3CCOCC3)cc2)cn1)NCc1ccccc1 [KX2-391],1.06 ± 0.031,1.05 ± 0.037,1.08 ± 0.029,1.03 ± 0.031,1.04 ± 0.034,0.912 ± 0.049,0.504 ± 0.037,0.472 ± 0.029,0.435 ± 0.014,0.443 ± 0.022,0.461 ± 0.028
C[C@@H](c1ccc2nccn2c1)n1nnc2ncc(-c3cnn(C)c3)nc21 [Volitinib],1.06 ± 0.029,1.06 ± 0.034,1.08 ± 0.027,1.08 ± 0.051,1.06 ± 0.045,1.089 ± 0.0097,1.07 ± 0.041,1.06 ± 0.043,1.1 ± 0.026,1.05 ± 0.025,1.05 ± 0.044
C[C@]1(O)C[C@@H](c2nc(-c3ccc4ccc(-c5ccccc5)nc4c3)c3c(N)nccn32)C1 [Linsitinib],1.04 ± 0.037,1.05 ± 0.014,1.03 ± 0.041,1 ± 0.043,0.995 ± 0.048,0.973 ± 0.027,0.9745 ± 0.0092,0.9267 ± 0.0035,0.914 ± 0.027,0.821 ± 0.028,0.615 ± 0.018
COc1cc2c(Oc3ccc4[nH]c(C)cc4c3F)ncnc2cc1OCCCN1CCCC1 [Cediranib],1.04 ± 0.024,1.05 ± 0.039,1.06 ± 0.042,1.05 ± 0.016,1.063 ± 0.0043,1.04 ± 0.035,1.06 ± 0.027,1.03 ± 0.032,0.982 ± 0.022,1.05 ± 0.021,1.026 ± 0.002
CC(C)(C)c1cc(NC(=O)Nc2ccc(-c3cn4c(n3)sc3cc(OCCN5CCOCC5)ccc34)cc2)no1 [Quizartinib],1.05 ± 0.023,1.045 ± 0.0071,1.05 ± 0.0053,1.041 ± 0.0092,1.051 ± 0.0052,1.04 ± 0.012,1.04 ± 0.019,1.03 ± 0.037,1.029 ± 0.01,1.032 ± 0.0056,1.02 ± 0.018
COc1cc2/c(=N/c3ccc(Br)cc3F)nc[nH]c2cc1OCC1CCN(C)CC1 [Vandetanib],1.02 ± 0.046,1.01 ± 0.052,1 ± 0.036,1.02 ± 0.041,1.03 ± 0.02,0.987 ± 0.051,0.964 ± 0.0059,0.91 ± 0.025,0.802 ± 0.03,0.5804 ± 0.0048,0.00997 ± 0.0034
